Experimental data taken from the supplement of paper PMC8882468.

Each compound was assayed on HCI-002 (organoid from a triple-negative breast cancer xenograft) (assay: CTG-3D luminescence at 96 h relative to day-0 seeding control (ratio to day 0); higher = more growth / less cytotoxicity; PDxO 3D drug screen, 96 h, CTG-3D normalised to day-0 seeding control.). Details: 10 µM; days in culture: 91.

| SMILES | CTG-3D luminescence at 96 h |
| --- | --- |
| CC(C)(C(=O)NCC(F)(F)C(F)(F)F)C(=O)N[C@@H]1C(=O)Nc2ccccc2-c2ccccc21 | 3.51 |
| C=CC(=O)N1CCC[C@@H](n2nc(-c3ccc(Oc4ccccc4)cc3)c3c(N)ncnc32)C1 [ibrutinib] | 1.75 |
| CNC(=O)c1cccc(-c2ccc3c(N4CCOC[C@@H]4C)nc(N4CCOC[C@@H]4C)nc3n2)c1 [vistusertib] | 0.884 |
| CCN(c1cc(C#CCN2CCOCC2)cc(C(=O)NCc2c(C)cc(C)[nH]c2=O)c1C)[C@H]1CC[C@H](N(C)CCOC)CC1 | 2.58 |

Same assay, conditions: 10 µM; days in culture: 191

| SMILES | CTG-3D luminescence at 96 h |
| --- | --- |
| CC(C)(C(=O)NCC(F)(F)C(F)(F)F)C(=O)N[C@@H]1C(=O)Nc2ccccc2-c2ccccc21 | 2.26 |
| C=CC(=O)N1CCC[C@@H](n2nc(-c3ccc(Oc4ccccc4)cc3)c3c(N)ncnc32)C1 [ibrutinib] | 1.34 |
| CNC(=O)c1cccc(-c2ccc3c(N4CCOC[C@@H]4C)nc(N4CCOC[C@@H]4C)nc3n2)c1 [vistusertib] | 0.774 |
| CCN(c1cc(C#CCN2CCOCC2)cc(C(=O)NCc2c(C)cc(C)[nH]c2=O)c1C)[C@H]1CC[C@H](N(C)CCOC)CC1 | 3.62 |

Same assay, conditions: 10 µM; days in culture: 209

| SMILES | CTG-3D luminescence at 96 h |
| --- | --- |
| CC(C)(C(=O)NCC(F)(F)C(F)(F)F)C(=O)N[C@@H]1C(=O)Nc2ccccc2-c2ccccc21 | 1.91 |
| C=CC(=O)N1CCC[C@@H](n2nc(-c3ccc(Oc4ccccc4)cc3)c3c(N)ncnc32)C1 [ibrutinib] | 1 |
| CNC(=O)c1cccc(-c2ccc3c(N4CCOC[C@@H]4C)nc(N4CCOC[C@@H]4C)nc3n2)c1 [vistusertib] | 0.345 |
| CCN(c1cc(C#CCN2CCOCC2)cc(C(=O)NCc2c(C)cc(C)[nH]c2=O)c1C)[C@H]1CC[C@H](N(C)CCOC)CC1 | 2.64 |

Same assay, conditions: 10 µM; days in culture: 227

| SMILES | CTG-3D luminescence at 96 h |
| --- | --- |
| CC(C)(C(=O)NCC(F)(F)C(F)(F)F)C(=O)N[C@@H]1C(=O)Nc2ccccc2-c2ccccc21 | 5.63 |
| C=CC(=O)N1CCC[C@@H](n2nc(-c3ccc(Oc4ccccc4)cc3)c3c(N)ncnc32)C1 [ibrutinib] | 2.26 |
| CNC(=O)c1cccc(-c2ccc3c(N4CCOC[C@@H]4C)nc(N4CCOC[C@@H]4C)nc3n2)c1 [vistusertib] | 1.12 |
| CCN(c1cc(C#CCN2CCOCC2)cc(C(=O)NCc2c(C)cc(C)[nH]c2=O)c1C)[C@H]1CC[C@H](N(C)CCOC)CC1 | 5.77 |

Same assay, conditions: 100 µM; days in culture: 62

| SMILES | CTG-3D luminescence at 96 h |
| --- | --- |
| CC(C)(C(=O)NCC(F)(F)C(F)(F)F)C(=O)N[C@@H]1C(=O)Nc2ccccc2-c2ccccc21 | 2.47 |
| C=CC(=O)N1CCC[C@@H](n2nc(-c3ccc(Oc4ccccc4)cc3)c3c(N)ncnc32)C1 [ibrutinib] | -0.0218 |
| CNC(=O)c1cccc(-c2ccc3c(N4CCOC[C@@H]4C)nc(N4CCOC[C@@H]4C)nc3n2)c1 [vistusertib] | 0.277 |
| CCN(c1cc(C#CCN2CCOCC2)cc(C(=O)NCc2c(C)cc(C)[nH]c2=O)c1C)[C@H]1CC[C@H](N(C)CCOC)CC1 | 3.84 |

Same assay, conditions: 100 µM; days in culture: 82

| SMILES | CTG-3D luminescence at 96 h |
| --- | --- |
| CC(C)(C(=O)NCC(F)(F)C(F)(F)F)C(=O)N[C@@H]1C(=O)Nc2ccccc2-c2ccccc21 | 1.34 |
| C=CC(=O)N1CCC[C@@H](n2nc(-c3ccc(Oc4ccccc4)cc3)c3c(N)ncnc32)C1 [ibrutinib] | -0.0175 |
| CNC(=O)c1cccc(-c2ccc3c(N4CCOC[C@@H]4C)nc(N4CCOC[C@@H]4C)nc3n2)c1 [vistusertib] | 0.259 |
| CCN(c1cc(C#CCN2CCOCC2)cc(C(=O)NCc2c(C)cc(C)[nH]c2=O)c1C)[C@H]1CC[C@H](N(C)CCOC)CC1 | 2.82 |

Same assay, conditions: 100 µM; days in culture: 91

| SMILES | CTG-3D luminescence at 96 h |
| --- | --- |
| CC(C)(C(=O)NCC(F)(F)C(F)(F)F)C(=O)N[C@@H]1C(=O)Nc2ccccc2-c2ccccc21 | 2.15 |
| C=CC(=O)N1CCC[C@@H](n2nc(-c3ccc(Oc4ccccc4)cc3)c3c(N)ncnc32)C1 [ibrutinib] | -0.0238 |
| CNC(=O)c1cccc(-c2ccc3c(N4CCOC[C@@H]4C)nc(N4CCOC[C@@H]4C)nc3n2)c1 [vistusertib] | 0.482 |
| CCN(c1cc(C#CCN2CCOCC2)cc(C(=O)NCc2c(C)cc(C)[nH]c2=O)c1C)[C@H]1CC[C@H](N(C)CCOC)CC1 | 2.11 |

Same assay, conditions: 100 µM; days in culture: 191

| SMILES | CTG-3D luminescence at 96 h |
| --- | --- |
| CC(C)(C(=O)NCC(F)(F)C(F)(F)F)C(=O)N[C@@H]1C(=O)Nc2ccccc2-c2ccccc21 | 1.81 |
| C=CC(=O)N1CCC[C@@H](n2nc(-c3ccc(Oc4ccccc4)cc3)c3c(N)ncnc32)C1 [ibrutinib] | -0.014 |
| CNC(=O)c1cccc(-c2ccc3c(N4CCOC[C@@H]4C)nc(N4CCOC[C@@H]4C)nc3n2)c1 [vistusertib] | 0.426 |
| CCN(c1cc(C#CCN2CCOCC2)cc(C(=O)NCc2c(C)cc(C)[nH]c2=O)c1C)[C@H]1CC[C@H](N(C)CCOC)CC1 | 3.54 |

Same assay, conditions: 100 µM; days in culture: 209

| SMILES | CTG-3D luminescence at 96 h |
| --- | --- |
| CC(C)(C(=O)NCC(F)(F)C(F)(F)F)C(=O)N[C@@H]1C(=O)Nc2ccccc2-c2ccccc21 | 1.55 |
| C=CC(=O)N1CCC[C@@H](n2nc(-c3ccc(Oc4ccccc4)cc3)c3c(N)ncnc32)C1 [ibrutinib] | -0.0179 |
| CNC(=O)c1cccc(-c2ccc3c(N4CCOC[C@@H]4C)nc(N4CCOC[C@@H]4C)nc3n2)c1 [vistusertib] | 0.219 |
| CCN(c1cc(C#CCN2CCOCC2)cc(C(=O)NCc2c(C)cc(C)[nH]c2=O)c1C)[C@H]1CC[C@H](N(C)CCOC)CC1 | 2.79 |

Same assay, conditions: 100 µM; days in culture: 227

| SMILES | CTG-3D luminescence at 96 h |
| --- | --- |
| CC(C)(C(=O)NCC(F)(F)C(F)(F)F)C(=O)N[C@@H]1C(=O)Nc2ccccc2-c2ccccc21 | 2.44 |
| C=CC(=O)N1CCC[C@@H](n2nc(-c3ccc(Oc4ccccc4)cc3)c3c(N)ncnc32)C1 [ibrutinib] | -0.0321 |
| CNC(=O)c1cccc(-c2ccc3c(N4CCOC[C@@H]4C)nc(N4CCOC[C@@H]4C)nc3n2)c1 [vistusertib] | 0.394 |
| CCN(c1cc(C#CCN2CCOCC2)cc(C(=O)NCc2c(C)cc(C)[nH]c2=O)c1C)[C@H]1CC[C@H](N(C)CCOC)CC1 | 4.2 |

Same assay, conditions: 625 fM; days in culture: 62

| SMILES | CTG-3D luminescence at 96 h |
| --- | --- |
| CC(C)(C(=O)NCC(F)(F)C(F)(F)F)C(=O)N[C@@H]1C(=O)Nc2ccccc2-c2ccccc21 | 2.63 |
| C=CC(=O)N1CCC[C@@H](n2nc(-c3ccc(Oc4ccccc4)cc3)c3c(N)ncnc32)C1 [ibrutinib] | 2.97 |
| CNC(=O)c1cccc(-c2ccc3c(N4CCOC[C@@H]4C)nc(N4CCOC[C@@H]4C)nc3n2)c1 [vistusertib] | 2.99 |
| CCN(c1cc(C#CCN2CCOCC2)cc(C(=O)NCc2c(C)cc(C)[nH]c2=O)c1C)[C@H]1CC[C@H](N(C)CCOC)CC1 | 3.54 |

Same assay, conditions: 625 fM; days in culture: 82

| SMILES | CTG-3D luminescence at 96 h |
| --- | --- |
| CC(C)(C(=O)NCC(F)(F)C(F)(F)F)C(=O)N[C@@H]1C(=O)Nc2ccccc2-c2ccccc21 | 3.05 |
| C=CC(=O)N1CCC[C@@H](n2nc(-c3ccc(Oc4ccccc4)cc3)c3c(N)ncnc32)C1 [ibrutinib] | 2.68 |
| CNC(=O)c1cccc(-c2ccc3c(N4CCOC[C@@H]4C)nc(N4CCOC[C@@H]4C)nc3n2)c1 [vistusertib] | 2.63 |
| CCN(c1cc(C#CCN2CCOCC2)cc(C(=O)NCc2c(C)cc(C)[nH]c2=O)c1C)[C@H]1CC[C@H](N(C)CCOC)CC1 | 3.6 |

Same assay, conditions: 625 fM; days in culture: 91

| SMILES | CTG-3D luminescence at 96 h |
| --- | --- |
| CC(C)(C(=O)NCC(F)(F)C(F)(F)F)C(=O)N[C@@H]1C(=O)Nc2ccccc2-c2ccccc21 | 4.61 |
| C=CC(=O)N1CCC[C@@H](n2nc(-c3ccc(Oc4ccccc4)cc3)c3c(N)ncnc32)C1 [ibrutinib] | 3.98 |
| CNC(=O)c1cccc(-c2ccc3c(N4CCOC[C@@H]4C)nc(N4CCOC[C@@H]4C)nc3n2)c1 [vistusertib] | 3.86 |
| CCN(c1cc(C#CCN2CCOCC2)cc(C(=O)NCc2c(C)cc(C)[nH]c2=O)c1C)[C@H]1CC[C@H](N(C)CCOC)CC1 | 3.17 |

Same assay, conditions: 625 fM; days in culture: 191

| SMILES | CTG-3D luminescence at 96 h |
| --- | --- |
| CC(C)(C(=O)NCC(F)(F)C(F)(F)F)C(=O)N[C@@H]1C(=O)Nc2ccccc2-c2ccccc21 | 2.66 |
| C=CC(=O)N1CCC[C@@H](n2nc(-c3ccc(Oc4ccccc4)cc3)c3c(N)ncnc32)C1 [ibrutinib] | 2.82 |
| CNC(=O)c1cccc(-c2ccc3c(N4CCOC[C@@H]4C)nc(N4CCOC[C@@H]4C)nc3n2)c1 [vistusertib] | 2.78 |
| CCN(c1cc(C#CCN2CCOCC2)cc(C(=O)NCc2c(C)cc(C)[nH]c2=O)c1C)[C@H]1CC[C@H](N(C)CCOC)CC1 | 3.51 |

Same assay, conditions: 625 fM; days in culture: 209

| SMILES | CTG-3D luminescence at 96 h |
| --- | --- |
| CC(C)(C(=O)NCC(F)(F)C(F)(F)F)C(=O)N[C@@H]1C(=O)Nc2ccccc2-c2ccccc21 | 2.4 |
| C=CC(=O)N1CCC[C@@H](n2nc(-c3ccc(Oc4ccccc4)cc3)c3c(N)ncnc32)C1 [ibrutinib] | 2.34 |
| CNC(=O)c1cccc(-c2ccc3c(N4CCOC[C@@H]4C)nc(N4CCOC[C@@H]4C)nc3n2)c1 [vistusertib] | 2.62 |
| CCN(c1cc(C#CCN2CCOCC2)cc(C(=O)NCc2c(C)cc(C)[nH]c2=O)c1C)[C@H]1CC[C@H](N(C)CCOC)CC1 | 2.8 |

Same assay, conditions: 625 fM; days in culture: 227

| SMILES | CTG-3D luminescence at 96 h |
| --- | --- |
| CC(C)(C(=O)NCC(F)(F)C(F)(F)F)C(=O)N[C@@H]1C(=O)Nc2ccccc2-c2ccccc21 | 6.16 |
| C=CC(=O)N1CCC[C@@H](n2nc(-c3ccc(Oc4ccccc4)cc3)c3c(N)ncnc32)C1 [ibrutinib] | 5.19 |
| CNC(=O)c1cccc(-c2ccc3c(N4CCOC[C@@H]4C)nc(N4CCOC[C@@H]4C)nc3n2)c1 [vistusertib] | 5.47 |
| CCN(c1cc(C#CCN2CCOCC2)cc(C(=O)NCc2c(C)cc(C)[nH]c2=O)c1C)[C@H]1CC[C@H](N(C)CCOC)CC1 | 5.52 |
